What was measured:
Format in all cases: in vivo
[1] = test system: canola seed; assay: Canola seed treatment, soil emergence: ABA-dose x benzyladenine (technical powder) dose factorial
Procedure: The experiment was set up as an ABA-dose×BA-dose factorial experiment, with four doses of ABA (0, 25, 50, and 100 g/cwt) and four doses of benzyladenine (0, 1, 5 and 25 g/cwt) for a total of 16 treatment combinations. The treatments were made up in 1 ml samples of experimental aqueous seed treatment slurry. ABA was added in the form of a water solution of the ammonium salt. Benzyladenine was added as technical powder. Ten μl Tween-20 were added to each sample to help wet and suspend the benzyladenine powder. All of the seed treatment slurry samples contained CF-Clear film-forming agent and Color Coat Red (Becker Underwood), each at 1 oz/cwt, and 0.167 oz/cwt Maxim XL fungicide (Syngenta). The slurry application volume was 40 […]=100 lbs of seed). Ten gram samples of canola seed were treated with the experimental slurries using a Hege 11 seed treater with a six-inch bowl. The seed was planted in plastic boxes containing 1 kg of typical agricultural silt loam. One hundred seeds were planted 2 cm deep in each plastic box, and the soil in the box was adjusted to 21% soil moisture (wet-weight basis). Two replications of the experiment were incubated under constant light in a 10° C. chamber. The soil temperature averaged 12.6° C. The boxes were watered up to the correct weight every 1-2 days, and checked for emergence. Counts of seedlings were continued until it became clear that emergence had ceased (28 days). The final count of emerged seedlings was expressed as a percentage of the 100 seeds planted. The daily counts were converted to proportions of the final emergence of the box, and a Gompertz curve was fitted to the data from each box using SAS Proc NLIN. […] Analysis of variance was performed and means calculated for each of the three responses (Final emergence, […]).

[2] = test system: canola seed; assay: Canola seed treatment, soil emergence: ABA-dose x benzyladenine (as Maxcel) dose factorial
Procedure: (§1) The seed was planted in plastic boxes containing 1 kg of typical agricultural silt loam. One hundred seeds were planted 2 cm deep in each plastic box, and the soil in the box was adjusted to 21% soil moisture (wet-weight basis). Two replications of the experiment were incubated under constant light in a 10° C. chamber. The soil temperature averaged 12.6° C. The boxes were watered up to the correct weight every 1-2 days, and checked for emergence. Counts of seedlings were continued until it became clear that emergence had ceased (28 days). The final count of emerged seedlings was expressed as a percentage of the 100 seeds planted.
(§2) The daily counts were converted to proportions of the final emergence of the box, and a Gompertz curve was fitted to the data from each box using SAS Proc NLIN. From the parameters of the model, median emergence time (T50) and quartile range (Qrange) were estimated for each box. Analysis of variance was performed and means calculated for each of the three responses (Final emergence, T50, Qrange).
The experiment was set up as an ABA-dose x benzyladenine-dose factorial experiment, with four doses of ABA (0, 25, 50 and- 100 g/cwt) and three doses of benzyladenine (0, 1 and 5 g/cwt) for a total of 12 treatment combinations. The treatments were made up in 1 ml samples of experimental aqueous seed treatment slurry. ABA was added in the form of a water solution of the ammonium salt. Benzyladenine was added in the form of Maxcel. Treatments receiving less than the maximum amount of Maxcel, received an appropriate amount of Maxcel blank formulation, so that each slurry sample was identical with regard to Maxcel inert ingredients. All of the seed treatment slurry samples contained CF-Clear film-forming agent and Colorcoat Red (Becker Underwood), each at 1 oz/cwt, and 0.167 oz/cwt Maxim XL fungicide (Syngenta). The slurry application volume was 40 oz/cwt (cwt=100 lbs of seed). Ten gram samples of canola seed were treated with the experimental slurries using a Hege 11 seed treater with a six-inch bowl.
The seed was germinated and data analyzed as described under Example 1.

[3] = test system: canola seed; assay: Canola seed treatment, soil emergence: ABA-dose x GA4/7 dose factorial; conditions: for Final emergence / QR / T50: GA4/7 dose 0 g/cwt
Procedure: The experiment was set up as an ABA-dose×GA4/7-dose factorial experiment, with four doses of ABA (0, 25, 50 and 100 g/cwt) and […] doses of GA4/7 (0, 1, 5 and 25 g/cwt) for a total of 16 treatment combinations. The treatments were made up in 1 ml samples of experimental aqueous seed treatment slurry. ABA and GA4/7 were added as the free acid technical powders. All of the seed treatment slurry samples contained CF-Clear film-forming agent and Colorcoat Red (Becker Underwood), each at 1 oz/cwt, and 0.167 oz/cwt Maxim XL fungicide (Syngenta). The slurry application volume was 40 oz/cwt (cwt=100 lbs of seed). Ten gram samples of canola seed were treated with the experimental slurries using a Hege 11 seed treater with a six-inch bowl.

[4] = test system: canola seed; assay: Canola seed treatment, soil emergence: ABA-dose x CPPU (as Prestige) dose factorial
Procedure: as §1, §2
The experiment was set up as an ABA-dose×CPPU-dose factorial experiment, with four doses of ABA (0, 25, 50 and 100 g/cwt) and […] doses of CPPU (0, 0.04, 0.2 and 1 g/cwt) for a total of 16 treatment combinations. The treatments were made up in 1 ml samples of experimental aqueous seed treatment slurry. ABA was added as the free acid. CPPU was added in the form of Prestige®. Treatments receiving less than the maximum amount of Prestige, received an appropriate amount of Prestige blank formulation, so that each slurry sample was identical with regard to Prestige inert ingredients. All of the seed treatment slurry samples contained CF-Clear film-forming agent and Colorcoat Red (Becker Underwood), each at 1 oz/cwt, and 0.167 oz/cwt Maxim XL fungicide (Syngenta). The slurry application volume was 40 oz/cwt (cwt=100 lbs of seed). Ten gram samples of canola seed were treated with the experimental slurries using a Hege 11 seed treater with a six-inch bowl.
The seed was germinated and data analyzed as described under Example 1, except that emergence, being unusually low in this trial, rendered the quartile range estimates unreliable. Therefore, quartile range values are not shown.

[5] = ABA dose 0 g/cwt, Benzyladenine dose 1 g/cwt (technical powder)
[6] = ABA dose 0 g/cwt, Benzyladenine dose 5 g/cwt (technical powder)
[7] = ABA dose 0 g/cwt, Benzyladenine dose 25 g/cwt (technical powder)
[8] = ABA dose 0 g/cwt, Benzyladenine dose 1 g/cwt (in the form of Maxcel)
[9] = ABA dose 0 g/cwt, Benzyladenine dose 5 g/cwt (in the form of Maxcel)
[10] = ABA (free acid) dose 25 g/cwt, CPPU dose 0 g/cwt (Prestige blank)
[11] = ABA (free acid) dose 50 g/cwt, CPPU dose 0 g/cwt (Prestige blank)
[12] = ABA (free acid) dose 100 g/cwt, CPPU dose 0 g/cwt (Prestige blank)
[13] = ABA (ammonium salt) dose 25 g/cwt, Benzyladenine dose 0 g/cwt
[14] = ABA (ammonium salt) dose 50 g/cwt, Benzyladenine dose 0 g/cwt
[15] = ABA (ammonium salt) dose 100 g/cwt, Benzyladenine dose 0 g/cwt
[16] = ABA (ammonium salt) dose 25 g/cwt, Benzyladenine dose 0 g/cwt (Maxcel blank)
[17] = ABA (ammonium salt) dose 50 g/cwt, Benzyladenine dose 0 g/cwt (Maxcel blank)
[18] = ABA (ammonium salt) dose 100 g/cwt, Benzyladenine dose 0 g/cwt (Maxcel blank)
[19] = ABA dose 0 g/cwt, CPPU dose 0.04 g/cwt (in the form of Prestige)
[20] = ABA dose 0 g/cwt, CPPU dose 0.2 g/cwt (in the form of Prestige)
[21] = ABA dose 0 g/cwt, CPPU dose 1 g/cwt (in the form of Prestige)

Molecule: c1ccc(CNc2[nH]cnc3ncnc2-3)cc1 [Benzyladenine, N^6-phenylmethyl-1H-purin-6-amine]
- Final emergence [1, 5]: 98.0%
- Qrange [1, 5]: 1.30 days
- T50 [1, 5]: 6.37 days
- Final emergence [1, 6]: 91.6%
- Qrange [1, 6]: 2.36 days
- T50 [1, 6]: 6.76 days
- Final emergence [1, 7]: 89.9%
- Qrange [1, 7]: 3.02 days
- T50 [1, 7]: 7.88 days
- Final emergence [2, 8]: 97.5%
- Qrange [2, 8]: 1.84 days
- T50 [2, 8]: 6.02 days
- Final emergence [2, 9]: 97.1%
- Qrange [2, 9]: 1.77 days
- T50 [2, 9]: 6.09 days

Molecule: S-(+)- abscisic acid [ABA]
- Final emergence ([3]; ABA (free acid) dose 25 g/cwt): 84.0%
- QR ([3]; ABA (free acid) dose 25 g/cwt): 3.33 days
- T50 ([3]; ABA (free acid) dose 25 g/cwt): 10.42 days
- Final emergence ([3]; ABA (free acid) dose 50 g/cwt): 66.0%
- QR ([3]; ABA (free acid) dose 50 g/cwt): 3.38 days
- T50 ([3]; ABA (free acid) dose 50 g/cwt): 12.16 days
- Final emergence ([3]; ABA (free acid) dose 100 g/cwt): 48.0%
- QR ([3]; ABA (free acid) dose 100 g/cwt): 5.69 days
- T50 ([3]; ABA (free acid) dose 100 g/cwt): 16.48 days
- emergence ([3]; high doses of ABA alone): significant and important reduction in emergence
- Final emergence [4, 10]: 84.0%
- T50 [4, 10]: 10.4 days
- Final emergence [4, 11]: 66.0%
- T50 [4, 11]: 12.16 days
- Final emergence [4, 12]: 48.0%
- T50 [4, 12]: 16.48 days
- emergence ([4]; high doses of ABA): significant and important reduction in emergence
- Final emergence [1, 13]: 92.3%
- Qrange [1, 13]: 3.26 days
- T50 [1, 13]: 9.15 days
- Final emergence [1, 14]: 68.9%
- Qrange [1, 14]: 4.27 days
- T50 [1, 14]: 11.20 days
- Final emergence [1, 15]: 53.5%
- Qrange [1, 15]: 4.27 days
- T50 [1, 15]: 12.74 days
- Final emergence ([1]; ABA at a dose of 100 g/cwt): roughly cut in half
- Final emergence [2, 16]: 92.9%
- Qrange [2, 16]: 2.06 days
- T50 [2, 16]: 8.17 days
- Final emergence [2, 17]: 91.4%
- Qrange [2, 17]: 3.74 days
- T50 [2, 17]: 10.57 days
- Final emergence [2, 18]: 49.5%
- Qrange [2, 18]: 5.84 days
- T50 [2, 18]: 13.61 days
- Final emergence ([2]; ABA at a dose of 100 g/cwt): roughly cut in half

Molecule: O=C(Nc1ccccc1)Nc1ccnc(Cl)c1 [CPPU]
- Final emergence [4, 19]: 80.3%
- T50 [4, 19]: 7.12 days
- Final emergence [4, 20]: 78.1%
- T50 [4, 20]: 7.48 days
- Final emergence [4, 21]: 77.6%
- T50 [4, 21]: 8.30 days

— patent publication US20090137391A1, “Use of benzyladenine to improve emergence of seeds treated with abscisic acid” (priority 2007, published 2009)
